Data on one compound can be found in ChEMBL document CHEMBL2016490, “Sinularioside, a triacetylated glycolipid from the Indonesian soft coral Sinularia sp., is an inhibitor of NO release” (2012).

In general, inhibition refers to the relative decrease from the control value, in per cent.

What all share (type): functional
Conditions in all cases: J774, 24 h

The test system of test [1] is J774. Description: Antiinflammatory activity in mouse J774 cells assessed as inhibition of LPS-induced NO production at 100 uM after 24 hrs by Griess method. For orientation: Nitrite, measured by Griess reagent, commonly stands in for NO production.
Test [2] has as its system J774. Description: Antiinflammatory activity in mouse J774 cells assessed as inhibition of LPS-induced NO production at 30 uM after 24 hrs by Griess method.
The subject of test [3] is J774. Description: Antiinflammatory activity in mouse J774 cells assessed as inhibition of LPS-induced NO production at 10 uM after 24 hrs by Griess method.

As to `CCCCCCCCCCCCCCO[C@H]1OC[C@@H](O[C@H]2OC[C@@H](O)[C@@H](OC(C)=O)[C@@H]2OC(C)=O)[C@@H](O)[C@@H]1OC(C)=O` [SINULARIOSIDE], the inhibition at 100 µM with J774 [1] is 92.3%. For the same compound, in the test on J774 [2], the inhibition at 30 µM was 58.2%. Moreover, in the test with J774 [3], the inhibition at 10 µM worked out at 6%.
